From patent US4064235A, “Dopamine derivative compounds, preparation thereof and medicine containing same” (Eisai Co., Ltd., priority 1975, dated 1977)

Columns and labels:
[1] = system: renal blood flow rate; assay: Measurement of the renal blood flow increasing activity in anesthetized dogs; assay type: in vivo; settings: for Duration Time of Activity / Renal Blood Flow Rate Increase Ratio (%): 1 mg/Kg/min into the crotch vein continuously over 3 minutes; for Renal Blood Flow Rate Increase Ratio (%): increase at highest flow rate relative to flow rate before administration; for intensity of the activity and activity duration compared with known compound A: dogs, 1 mg/Kg/min for 3 minutes
Procedure: Measurement of the renal blood flow increasing activity. Compounds Tested:
Crossbred adult dogs (irrespective of the sex) having a body weight of about 15 Kg were used.
The test animal was anesthetized by an intravenous injection of pentobarbital sodium salt (30 mg/Kg) and the abdominal region was fixed. The back region was opened and a probe of a rectangular wave electromagnetic flow meter (Model MF-26 manufactured by Nippon Koden K. K.) was attached to the artery of the left kidney to determine the renal blood flow rate (R. B. F.).
Each test compound was dissolved in distilled water and administered to the test animal from a vinyl resin fine tube inserted and fixed into the crotch vein. The amount administered was 1 mg/Kg/min. and the administration was conducted continuously over a period of 3 minutes.
The degree of increase of the renal blood flow rate by administration of the test compound was expressed in terms of the increase ratio (%), namely the ratio of the increase of the flow rate (when the flow rate was highest) to the flow rate before administration of the test compound. The duration of the activity was simultaneously examined.

[2] = system: renal blood flow; settings: cited from earlier work
[3] = system: renal blood flow; assay: tracing experiment on renal blood flow promoting activity of isoleucyl dopamine; assay type: in vivo
Source text: Because of this specific activity, it has been considered to use dopamine for improving renal insufficiency accompanied by hyperpiesia or cardiac insufficiency and other similar diseases. However, since dopamine is promptly converted to norepinephrine or the like by metabolism and the activity is insufficient in duration, it has been difficult to put this compound into practical use.

Molecule | Duration Time of Activity ([1]; anesthetized dogs) | Renal Blood Flow Rate Increase Ratio (%) ([1]; anesthetized dogs) | intensity of the activity and activity duration compared with known compound A [1] | durability of renal blood flow increasing activity compared with dopamine ([2]; literature: Am. Chem. So., 165, Meet. MEDI. 11, 1973) | activity retention time compared with dopamine [3] | renal blood flow promoting activity [3] | activity of increasing the renal blood flow ([2]; literature: Circulation Research, vol. XVI, 1965) | renal blood flow rate change by administration ([1]; anesthetized dogs)
CC(=O)O.CCC(C)C(N)C(=O)NC(C(=O)NCCc1ccc(O)c(O)c1)C(C)C (stereo not drawn) [Compound A of Present Invention, n-l-isoleucylvalyl dopamine acetate] | 10 min | 33% | excellent over the known compound A |  |  |  |  | 
CC(=O)O.NCC(=O)N1CCC[C@H]1C(=O)NCCc1ccc(O)c(O)c1 [Compound C of Present Invention, N-Glycyl-L-prolyl dopamine acetate] | 60 min | 30% | excellent over the known compound A |  |  |  |  | 
CC(=O)O.CC(C)C[C@H](NC(=O)CNC(=O)CN)C(=O)NCCc1ccc(O)c(O)c1 [Compound D of Present Invention, N-Glycylglycyl-L-leucyl dopamine acetate] | 20 min | 37% | excellent over the known compound A |  |  |  |  | 
CC(=O)O.NCC(=O)NCC(=O)N1CCC[C@H]1C(=O)NCCc1ccc(O)c(O)c1 [Compound E of Present Invention, N-Glycylglycyl-L-prolyl dopamine acetate] | 30 min | 36% | excellent over the known compound A |  |  |  |  | 
CC(=O)O.CC[C@H](C)[C@H](N)C(=O)NCCc1ccc(O)c(O)c1 [Known Compound A, N-L-Isoleucyl dopamine acetate] | 6 min | 10% |  | more durable than that of dopamine | longer than that of dopamine | low |  | 
NCCc1ccc(O)c(O)c1 [dopamine] |  |  |  |  |  |  | specific activity of increasing the renal blood flow | increased
N-Glycyl-L-glutamyl dopamine acetate [Compound B of Present Invention] | 60 min | 33% | excellent over the known compound A |  |  |  |  | 
